In patent US6323001A, “Increasing the trehalose content of organisms by transforming them with combinations of the structural genes for trehalose synthase” (BTG International Ltd., priority 1994, dated 2001):
Read-outs that look alike come from different tables or passages of the source.

How the values were obtained:
[1] = biological target: T1, Tre6P synthase activity of intact trehalose synthase (Saccharomyces cerevisiae, UniProt Q00764); assay: Tre6P synthase assay of intact trehalose synthase; type: biochemical, baker's yeast; details: 5 or 2.5 mM; 1 mM F6P at 1.3 mM phosphate
T1 construct: Intact trehalose synthase was purified from commercial baker's yeast; made in house; host or cells: commercial baker's yeast (native enzyme purified, not recombinant)
Procedure: (§1) With microbial materials, Tre6Pase and Tre6P synthase standard assays and other kinetic measurements were made as described by Londesborough & Vuorio [(1991) loc. cit.] except that the standard Tre6P synthase assay mixture contained 5 mM F6P unless stated otherwise.
Removal of the N-terminal 325 or so amino acids from the 123 kDa long chain of intact trehalose synthase by treatment with trypsin in vitro produces an enzyme with catalytic properties like those of the truncated enzyme purified by Londesborough & Vuorio [(1991) loc. cit.]. In one experiment intact trehalose synthase (0.28 Tre6P synthase units, ≈9.4 μg) was incubated with or without 0.5 μg of trypsin at 30° C. in 250 μl of 13 mM HEPES pH 7.0 containing 1 mM MgCl2, 0.5 mM EDTA, 0.5 mM dithiothreitol, 0.2 M NaCl and 0.5 mM benzamidine. Its Tre6P synthase activity was determined at intervals using standard assay mixtures (containing 5 mM F6P) containing no or 4 mM K phosphate pH 6.8, and samples were prepared for SDS-PAGE analysis immediately before and 48 min after addition of the trypsin.
(§2) Truncated trehalose synthase was prepared as described by Londesborough & Vuorio [(1991) loc. cit.] and contained the 57 kDa short chain and 86 and 93 kDa fragments of the long chain. Intact trehalose synthase was prepared as in Example 1. Kinetic assays were done at 30° C. as described in General Methods and Materials.

[2] = biological target: T2, 93 and 86 kDa long chain fragments of truncated trehalose synthase (Saccharomyces cerevisiae, UniProt P38427); assay: Labelling of truncated trehalose synthase with [14C]-NEM; type: binding, baker's yeast; details: for NEM entered the long chain fragments: 32 μM ethyl-labelled NEM; for NEM incorporated into long chain fragments at complete loss of Tre6Pase: per mole of truncated trehalose synthase, ring- and ethyl-labelled NEM
T2 construct: 93 kDa band may also hold TPS2 fragment
Procedure: (§3) In one experiment, 2.0 μl of 2.4 mM ethyl-labelled NEM was mixed with 150 μl of gel-filtered enzyme and incubated at 23° C. Samples (10 μl) taken at various times up to 190 min were mixed with 60 μl of Laemmli sample buffer (the mercapto-ethanol in this buffer should destroy residual NEM), boiled for 5 min and subjected to SDS-PAGE. At closely similar times (and also at 23 h) other samples (10 μl) were mixed with 100 μl (for Tre6P synthase) or 700 μl (for Tre6Pase) of 5 mg BSA/ml 25 mM HEPES pH 7.0 containing 2 mM MgCl2, 1 mM EDTA, 0.2 M NaCl and 1 mM dithiothreitol (the dithiothreitol should destroy residual NEM) and assayed for Tre6P synthase and Tre6Pase.
After electrophoresis, the upper (cathode) buffer, containing most of the added radioactivity, was completely removed before disassembling the apparatus. The gel was then fixed, stained and destained as described by Laemmli [(1970) Nature, London 227, 680-685] and dried. […] The Coomassie blue stained bands and adjacent, empty areas (as blanks) were cut out of the dried gel (in later experiments, they were cut from undried gels), broken up and extracted overnight with 1 ml of 5% SDS in pre-blanked scintillation vials. Then 10 ml of a toluene/Triton X100-based scintillant was added, and the tubes were repeatedly counted using a wide energy window to minimise quench effects. After 10 h constant counting levels were reached. Excess radioactivity was calculated by subtracting a blank value obtained from empty regions of the gel.

[3] = biological target: Tre6Pase activity of truncated trehalose synthase (Saccharomyces cerevisiae, UniProt P31688); assay: Tre6Pase assay of truncated trehalose synthase; type: biochemical, baker's yeast
Procedure: as §1
(§4) Truncated trehalose synthase containing the short (57 kDa) chain and the 86 and 93 kDa long chain fragments was prepared according to the method of Londesborough & Vuorio (1991) loc. cit.] for proteolytically activated TPS/P complex. Tre6P synthase and Tre6Pase activities were assayed as described by Londesborough & Vuorio [(1991) loc. cit.]. [N-ethyl-1-^14C]-maleimide (ethyl-labelled NEM; 40 mCi/mmol) was NEC-454 from New England Nuclear. N-ethyl-[2,3-^14 C]-maleimide (ring-labelled NEM; 6 mCi/mmol) was CFA 293 from Amersham International. Both were obtained as solutions in n-pentane and the manufacturer's stated specific activities were assumed to be correct. Unlabelled N-ethyl-maleimide (NEM) was E-3876 from Sigma. It was dissolved in 25 mM HEPES pH 7.0 immediately before use and standardized by absorption measurements at 305 nm, assuming an E^mM of 0.62.
as §3, §2

[4] = biological target: T3, Tre6P synthase activity of truncated trehalose synthase (Saccharomyces cerevisiae, UniProt Q00764); assay: Tre6P synthase assay of truncated trehalose synthase; type: biochemical, baker's yeast
T3 construct: contained the 57 kDa short chain; made in house; host or cells: baker's yeast (native enzyme, proteolytically truncated during purification)
T3 sequence (Q00764 1-495): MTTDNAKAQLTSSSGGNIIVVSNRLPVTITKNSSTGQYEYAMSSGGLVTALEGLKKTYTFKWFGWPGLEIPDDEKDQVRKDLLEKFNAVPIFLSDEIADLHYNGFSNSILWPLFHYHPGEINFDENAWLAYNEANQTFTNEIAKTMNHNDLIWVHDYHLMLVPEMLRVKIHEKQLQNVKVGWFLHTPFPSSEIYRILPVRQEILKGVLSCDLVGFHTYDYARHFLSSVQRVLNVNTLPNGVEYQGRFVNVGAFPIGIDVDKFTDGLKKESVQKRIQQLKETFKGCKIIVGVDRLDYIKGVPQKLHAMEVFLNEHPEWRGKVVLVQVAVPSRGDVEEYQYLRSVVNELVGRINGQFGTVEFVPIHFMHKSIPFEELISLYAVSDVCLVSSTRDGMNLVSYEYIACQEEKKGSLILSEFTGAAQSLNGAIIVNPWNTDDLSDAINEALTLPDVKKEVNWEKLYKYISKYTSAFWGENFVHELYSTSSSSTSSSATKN
Procedure: as §1, §4, §2

[5] = system: extract of X2180 yeast; assay: Synthesis of [14C]-trehalose from [U-14C]-G6P by extract of wild-type yeast; type: biochemical, S. cerevisiae; details: 2.5 mM ADPG

T1 sequence (P31688 whole entry, one chain of several): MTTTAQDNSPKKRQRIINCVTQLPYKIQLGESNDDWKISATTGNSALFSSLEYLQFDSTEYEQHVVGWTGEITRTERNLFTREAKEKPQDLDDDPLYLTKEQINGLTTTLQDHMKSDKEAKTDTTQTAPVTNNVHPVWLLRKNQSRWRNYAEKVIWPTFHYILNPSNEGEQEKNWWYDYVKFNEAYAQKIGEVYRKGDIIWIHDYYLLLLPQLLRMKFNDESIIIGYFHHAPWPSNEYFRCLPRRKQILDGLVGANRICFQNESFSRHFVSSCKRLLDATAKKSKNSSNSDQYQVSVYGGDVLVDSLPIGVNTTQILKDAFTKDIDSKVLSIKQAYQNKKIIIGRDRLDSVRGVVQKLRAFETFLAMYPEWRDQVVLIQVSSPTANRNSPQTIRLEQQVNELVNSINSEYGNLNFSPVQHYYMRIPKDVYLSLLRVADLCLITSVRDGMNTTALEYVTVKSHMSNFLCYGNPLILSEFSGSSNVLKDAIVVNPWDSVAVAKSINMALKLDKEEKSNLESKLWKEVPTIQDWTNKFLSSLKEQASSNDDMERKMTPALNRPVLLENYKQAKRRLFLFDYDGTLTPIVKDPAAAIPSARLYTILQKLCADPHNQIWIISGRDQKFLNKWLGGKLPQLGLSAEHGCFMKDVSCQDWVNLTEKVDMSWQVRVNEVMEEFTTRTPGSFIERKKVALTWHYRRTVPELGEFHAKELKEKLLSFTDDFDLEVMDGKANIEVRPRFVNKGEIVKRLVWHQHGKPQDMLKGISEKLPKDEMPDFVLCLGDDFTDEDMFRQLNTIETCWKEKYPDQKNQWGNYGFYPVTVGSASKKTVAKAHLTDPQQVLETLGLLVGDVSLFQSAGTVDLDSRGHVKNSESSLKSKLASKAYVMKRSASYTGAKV
T1 sequence (P38427 whole entry, one chain of several, further chain): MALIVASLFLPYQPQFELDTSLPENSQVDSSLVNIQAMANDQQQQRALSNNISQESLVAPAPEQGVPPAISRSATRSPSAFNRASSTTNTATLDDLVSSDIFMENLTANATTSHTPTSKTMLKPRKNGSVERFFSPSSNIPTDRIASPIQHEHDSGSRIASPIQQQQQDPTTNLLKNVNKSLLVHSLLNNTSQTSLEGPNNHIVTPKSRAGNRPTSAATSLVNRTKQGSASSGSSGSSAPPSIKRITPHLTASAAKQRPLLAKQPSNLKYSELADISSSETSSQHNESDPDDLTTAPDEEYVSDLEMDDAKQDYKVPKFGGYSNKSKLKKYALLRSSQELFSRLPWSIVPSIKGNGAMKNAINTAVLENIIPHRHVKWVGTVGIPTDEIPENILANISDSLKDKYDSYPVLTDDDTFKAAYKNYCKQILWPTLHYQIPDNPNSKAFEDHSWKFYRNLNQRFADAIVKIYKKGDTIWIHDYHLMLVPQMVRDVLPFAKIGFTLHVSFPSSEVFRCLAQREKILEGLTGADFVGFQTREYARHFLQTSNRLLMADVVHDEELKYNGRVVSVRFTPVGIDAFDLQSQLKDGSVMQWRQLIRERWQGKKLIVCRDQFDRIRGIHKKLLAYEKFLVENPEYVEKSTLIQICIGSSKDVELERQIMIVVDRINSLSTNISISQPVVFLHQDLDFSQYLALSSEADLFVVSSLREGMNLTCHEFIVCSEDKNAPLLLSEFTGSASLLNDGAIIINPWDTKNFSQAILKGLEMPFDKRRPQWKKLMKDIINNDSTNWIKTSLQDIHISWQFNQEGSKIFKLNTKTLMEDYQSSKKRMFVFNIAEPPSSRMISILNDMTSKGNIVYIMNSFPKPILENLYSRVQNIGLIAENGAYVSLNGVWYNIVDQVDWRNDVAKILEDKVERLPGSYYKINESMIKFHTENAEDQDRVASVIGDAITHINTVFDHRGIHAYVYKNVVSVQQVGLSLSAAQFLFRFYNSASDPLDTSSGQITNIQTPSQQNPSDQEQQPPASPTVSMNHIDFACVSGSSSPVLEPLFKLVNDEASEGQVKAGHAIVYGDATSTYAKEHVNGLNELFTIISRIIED
Tre6Pase activity of truncated trehalose synthase, sequence (P31688 whole entry, one chain of several, the tested form may be a part): as the sequence (P31688 whole entry, one chain of several) above
Tre6Pase activity of truncated trehalose synthase, sequence (P38427 336-1098, one chain of several, further chain): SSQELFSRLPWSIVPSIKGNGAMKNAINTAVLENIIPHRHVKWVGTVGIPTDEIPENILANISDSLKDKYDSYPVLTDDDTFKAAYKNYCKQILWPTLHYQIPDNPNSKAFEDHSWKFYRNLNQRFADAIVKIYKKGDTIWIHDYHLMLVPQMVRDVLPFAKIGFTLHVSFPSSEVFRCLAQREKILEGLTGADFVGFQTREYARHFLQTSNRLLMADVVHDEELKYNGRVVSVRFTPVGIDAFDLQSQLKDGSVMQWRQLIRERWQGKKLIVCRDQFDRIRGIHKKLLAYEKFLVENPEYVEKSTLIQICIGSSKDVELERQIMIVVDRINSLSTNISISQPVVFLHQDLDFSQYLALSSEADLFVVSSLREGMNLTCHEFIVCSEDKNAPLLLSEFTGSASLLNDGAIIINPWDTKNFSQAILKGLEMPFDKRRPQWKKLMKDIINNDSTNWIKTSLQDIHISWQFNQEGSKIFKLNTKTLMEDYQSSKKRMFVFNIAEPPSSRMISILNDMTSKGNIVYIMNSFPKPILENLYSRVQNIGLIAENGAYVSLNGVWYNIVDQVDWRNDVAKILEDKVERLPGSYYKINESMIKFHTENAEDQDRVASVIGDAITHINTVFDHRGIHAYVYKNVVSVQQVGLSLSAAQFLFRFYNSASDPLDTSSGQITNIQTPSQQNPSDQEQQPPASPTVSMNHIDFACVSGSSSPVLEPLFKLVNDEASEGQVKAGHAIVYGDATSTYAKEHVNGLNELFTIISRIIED
T2 sequence (P38427 336-1098): as the sequence (P38427 336-1098, one chain of several, further chain) above

Question: How did the “inhibition of Tre6P synthase activity” value [1] turn out when `O=C(COP(=O)(O)O)[C@@H](O)[C@H](O)[C@H](O)CO` [Fructose-1-phosphate] was run?
Answer: The value was “about 25%”.

Question: How did the “inhibition of Tre6P synthase activity” value [1] turn out when `O=P(O)(O)O[C@H]1O[C@H](CO)[C@@H](O)[C@H](O)[C@H]1O` [glucose-1-phosphate] was run?
Answer: Its value is “about 25%”.

Question: Which “NEM entered the long chain fragments” value ([2]; 10.5 min) does the source give for `CCN1C(=O)C=CC1=O` [NEM, N-ethyl-maleimide] here?
Answer: Its value is 0.20 moles per mole (150 Kg) of enz.

Question: And the “NEM entered the long chain fragments” value ([2]; 190 min)?
Answer: Its value is 0.32 moles per mole (150 Kg) of enz.

Question: What about the “NEM incorporated into long chain fragments at complete loss of Tre6Pase” value [2] of the same compound?
Answer: The value was “less than 1 mole”.

Question: And the “NEM incorporated into long chain fragments at complete loss of Tre6Pase” value ([2]; listed as 14C-N-ethylmaleimide)?
Answer: The value was “about 1 mole”.

Question: And the inhibition at 32 µM ([3]; 0.175 h, read-out: initial Tre6Pase lost, 32 μM ethyl-labelled NEM, 23° C., 10.5 min)?
Answer: Its inhibition at 32 µM is 30%.

Question: What about the inhibition at 32 µM ([3]; 190 min, read-out: initial Tre6Pase lost, 32 μM ethyl-labelled NEM, 23° C., 190 min) of the same compound?
Answer: The inhibition at 32 µM was 56%.

Question: And the inhibition at 1900 µM ([3]; read-out: loss of Tre6Pase activity, 1.9 mM NEM, 24° C., about 0.17 mM dithiothreitol)?
Answer: The inhibition at 1900 µM was at least 98%.

Question: And the inhibition at 1900 µM ([4]; 1.9 mM NEM, 24° C., about 0.17 mM dithiothreitol, read-out: loss of Tre6P synthase activity)?
Answer: The inhibition at 1900 µM was at most 24%.

Question: `O=P(O)(O)OC[C@H]1O[C@@](CO)(OP(=O)(O)O)[C@@H](O)[C@@H]1O` [fructose-2,6-bisphosphate] was tested. Which “inhibition of Tre6P synthase activity” value [1] did it give?
Answer: The value was “about 25%”.

Question: For `O=C(COP(=O)(O)O)[C@@H](O)[C@H](O)[C@H](O)COP(=O)(O)O` [fructose-1,6-bisphosphate], which “inhibition of Tre6P synthase activity” value [1] is on record?
Answer: The value was “about 25%”.

Question: What does the source list for `O=C(O)c1cc(SSc2ccc([N+](=O)[O-])c(C(=O)O)c2)ccc1[N+](=O)[O-]` [DTNB, dithiodinitro-benzoate]?
Answer: inhibition at 900 µM ([3]; 10 min, read-out: Tre6Pase lost, 0,9 mM DTNB, 10 min): > 95%; inhibition at 900 µM ([4]; 10 min, 0,9 mM DTNB, 10 min, read-out: Tre6P synthase lost): < 28%

Question: `Nc1ncnc2c1ncn2[C@@H]1O[C@H](COP(=O)(O)OP(=O)(O)O[C@H]2O[C@H](CO)[C@@H](O)[C@H](O)[C@H]2O)[C@@H](O)[C@H]1O` [ADPG, adenosine 5'-diphosphoglucose] was tested. Which “effect on rate of appearance of radioactivity” value [5] did it give?
Answer: Its value is “did not cause any significant increase”.
